According to patent US20140155445A1, “Compounds and Methods for Treating Cancer and Diseases of the Central Nervous System” (Osta Biotechnologies Inc., priority 2007, published 2014):
Structures can show the parent of a compound that is named as a salt. Where two headings read alike, the source gives them in different places.

Tests used:
HO-1 (rat spleen) = target: T1, HO-1 (rat spleen) (Rattus norvegicus, UniProt P06762); assay: HO enzymatic activity in rat spleen microsomal fraction (CO formed from methemalbumin, gas chromatography); assay type: biochemical
T1 construct: Spleen microsomes were used as a source of HO-1; from tissue; host or cells: spleen microsomal fraction of adult male Sprague-Dawley rats
T1 sequence (P06762 1-289): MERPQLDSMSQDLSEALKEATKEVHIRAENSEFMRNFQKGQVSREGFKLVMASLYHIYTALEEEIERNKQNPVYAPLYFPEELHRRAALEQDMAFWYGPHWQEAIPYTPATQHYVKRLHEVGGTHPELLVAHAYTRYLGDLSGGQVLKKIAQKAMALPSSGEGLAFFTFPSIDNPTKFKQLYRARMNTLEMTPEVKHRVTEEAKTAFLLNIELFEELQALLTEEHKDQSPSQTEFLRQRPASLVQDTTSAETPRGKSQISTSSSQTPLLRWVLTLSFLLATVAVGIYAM

HO-2 (rat brain) = target: T2, HO-2 (rat brain) (Rattus norvegicus, UniProt P23711); assay: HO enzymatic activity in rat brain microsomal fraction (CO formed from methemalbumin, gas chromatography); assay type: biochemical
T2 construct: brain microsomes were used as a source of HO-2; from tissue; host or cells: brain microsomal fraction of adult male Sprague-Dawley rats
T2 sequence (P23711 1-315): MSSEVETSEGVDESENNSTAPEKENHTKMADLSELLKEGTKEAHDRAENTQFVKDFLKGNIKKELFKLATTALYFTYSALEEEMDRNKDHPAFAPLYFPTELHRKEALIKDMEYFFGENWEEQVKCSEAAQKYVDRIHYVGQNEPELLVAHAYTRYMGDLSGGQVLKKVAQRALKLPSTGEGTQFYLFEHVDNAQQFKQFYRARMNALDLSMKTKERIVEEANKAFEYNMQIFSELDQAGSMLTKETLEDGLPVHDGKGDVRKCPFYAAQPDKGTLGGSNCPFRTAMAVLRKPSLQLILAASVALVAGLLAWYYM

[1] = rat spleen microsomes, average ± standard deviation of replicate experiments, read-out: IC50 HO-1 (rat spleen)/μM
[2] = rat brain microsomes, average ± standard deviation of replicate experiments, read-out: IC50 HO-2 (rat brain)/μM

Structure (SMILES)	IC50 (HO-1 (rat spleen); [1])	IC50 (HO-2 (rat brain); [2])	also measured
COc1ccc(SC[C@@H]2CO[C@@](CCc3ccc(Cl)cc3)(Cn3ccnc3)O2)cc1.Cl			melting point: 139 to 140 °C
C[C@H]1CO[C@](CCc2ccc(Cl)cc2)(Cn2ccnc2)O1.Cl			melting point: 172 to 173 °C
Cl.c1ccc(CCC2(Cn3ccnc3)OCCO2)cc1			melting point: 164 to 165 °C
Cl.Fc1ccc(SC[C@@H]2CO[C@@](CCc3ccc(Cl)cc3)(Cn3ccnc3)O2)cc1			melting point: 112 to 113 °C
Cl.FC(F)(F)c1ccc(SC[C@@H]2CO[C@@](CCc3ccc(Cl)cc3)(Cn3ccnc3)O2)nc1			melting point: 156 to 157 °C
Cl.Oc1ccc(OC[C@H]2CO[C@@](CCc3ccc(Cl)cc3)(Cn3ccnc3)O2)cc1			melting point: 128 to 130 °C
C[C@@H]1CO[C@](CCc2ccc(Cl)cc2)(Cn2ccnc2)O1 [(2S,4R)-2-[2-(4-chlorophenyl)ethyl]-2-[(1H-imidazol-1-yl)methyl]-4-methyl-1,3-dioxolane hydrochloride]	20 ± 4 µM	> 100 µM	
CC(C(=O)c1ccccc1)n1ccnc1 (racemic) [(±)-2-imidazol-1-yl-1-phenyl-propan-1-one hydrochloride]			IC50 (HO-1 (rat spleen)): 49 ± 2 µM; IC50 (HO-2 (rat brain)): > 100 µM
c1ccc(-c2ccc(C3(Cn4ccnc4)OCCO3)cc2)cc1 [1-(2-biphenyl-4-yl-[1,3]dioxolan-2-ylmethyl)-1H-imidazole hydrochloride]	16.2 ± 0.4 µM	> 100 µM	
Nc1ccccc1SC[C@@H]1CO[C@@](CCc2ccc(Cl)cc2)(Cn2ccnc2)O1 [(2R,4S)-2-[2-(4-chlorophenyl)ethyl]-2-[(1H-imidazol-1-yl)methyl]-4-[{(2-aminophenyl)thio}meth-yl]-1,3-dioxolane dihydrochloride]	4 ± 2 µM	42 ± 28 µM	
OC(CCc1ccccc1)Cn1cncn1 (racemic) [(±)-4-phenyl-1-[1,2,4]triazol-1-yl-butan-2-ol hydrochloride]	10.2 ± 0.2 µM		IC50 (HO-2 (rat brain)): 54 ± 12 µM
c1ccc(CCC2(Cn3cncn3)OCCO2)cc1 [2-(2-phenethyl)-2-{(1H-[1,2,4]triazol-1-yl)methyl}-1,3-dioxolane hydrochloride]	13 ± 2 µM	> 100 µM	
COc1ccc(CCN2CCC(Nc3nc4cc(C)c(C)cc4n3Cc3ccc(F)cc3)CC2)cc1	> 100 µM	91 ± 45 µM	
c1cn(CCCCCCCCn2ccnc2)cn1 [1,8-bis-(1H-imidazol-1-yl)octane dihydrochloride]	> 100 µM	> 100 µM	
[N-]=[N+]=NCC(=O)c1ccc(Br)cc1	> 100 µM	> 100 µM	
O=C(CCc1ccc([N+](=O)[O-])cc1)Cn1ccnc1 [1-(1H-Imidazol-1-yl)-4-(4-nitro-phenyl)-butan-2-one hydrochloride]	1.8 ± 0.4 µM	6.2 ± 0.1 µM	
Cc1nccn1CC(=O)CCc1ccccc1 [1-(2-methyl-imidazol-1-yl)-4-phenyl-butan-2-one hydrochloride]	> 100 µM	> 100 µM	
c1ccc2[nH]c(NC3CCNCC3)nc2c1	> 100 µM	> 100 µM	
c1ccc(CCC2(Cn3ccnc3)OCCO2)cc1 [2-[2-phenylethyl]-2-[(1H-imidazol-1-yl)methyl]-1,3-dioxolane hydrochloride]	0.7 ± 0.4 µM	> 100 µM	
FC(F)(F)c1ccc(SC[C@@H]2CO[C@@](CCc3ccc(Cl)cc3)(Cn3ccnc3)O2)nc1 [(2R,4S)-2-[2-(4-chlorophenyl)ethyl]-2-[(1H-imidazol-1-yl)methyl]-4[{(5-trifluoromethyl-pyridin-2-yl)ethio}methyl]-1,3-dioxolane hydrochloride]	2.1 ± 0.6 µM	16 ± 8 µM	
O=C(Cn1ccnc1)c1cccc(Br)c1 [1-(3-Bromo-phenyl)-2-(1H-imidazol-1-yl)-ethanone hydrochloride]	2.1 ± 0.1 µM	35 ± 3 µM	
CC(=O)C(Cc1ccc(Cl)cc1)n1ccnc1 (racemic) [(±)-4-(4-chlorophenyl)-3-imidazol-1-yl-butan-2-one hydrochloride]			IC50 (HO-1 (rat spleen)): > 100 µM; IC50 (HO-2 (rat brain)): > 100 µM
O=C(CCc1ccccc1)Cn1nc(Br)nc1Br [1-(3,5-Dibromo-[1,2,4]triazol-1-yl)-4-phenyl-butan-2-one]	> 100 µM	> 100 µM	
c1ccc(-n2ccnc2)cc1 [1-Phenyl-1H-imidazole hydrochloride]	> 100 µM	> 100 µM	
O=C(CCc1ccccc1)Cn1cnc(-c2ccccc2)c1-c1ccccc1 [1-(4,5-Diphenyl-imidazol-1-yl)-4-phenyl-butan-2-one hydrochloride]	40 ± 2 µM	> 100 µM	
Nc1ccc(OCC2CO[C@@](CCc3ccc(Cl)cc3)(Cn3ccnc3)O2)cc1 (stereo in doubt) [(2R,4S)-2-[2-(4-chlorophenyl)ethyl]-2-[(1H-imidazol-1-yl)methyl]-4-[(4-aminophenyloxy)meth-yl]-1,3-dioxolane dihydrochloride]	1.4 ± 0.3 µM	13 ± 4 µM	
Cl.c1cn(CC2OCCO2)cn1 [1-((1,3-Dioxolan-2-yl)methyl)-1H-imidazole hydrochloride]			IC50 HO-1 (rat spleen)/μM (HO-1 (rat spleen); rat spleen microsomes, average ± standard deviation of replicate experiments): Inactive; IC50 HO-2 (rat brain)/μM (HO-2 (rat brain); rat brain microsomes, average ± standard deviation of replicate experiments): Inactive
NCC(=O)c1ccc(Br)cc1			IC50 (HO-1 (rat spleen)): > 100 µM; IC50 (HO-2 (rat brain)): > 100 µM

Now from value to compound, other results behind:

IC50 (HO-1 (rat spleen); [1])	IC50 (HO-2 (rat brain); [2])	Structure (SMILES)	also measured
2.6 ± 0.1 µM	2.2 ± 0.2 µM	O=C(CCn1ccnc1)C(c1ccccc1)c1ccccc1 [4-(1H-Imidazol-1-yl)-1,1-diphenyl-butan-2-one hydrochloride]	
3.5 ± 0.9 µM	> 100 µM	c1ccc(CCCCn2ccnc2)cc1 [1-(4-phenyl-butyl)-1H-imidazole hydrochloride]	
1.5 ± 0.5 µM	0.43 ± 0.07 µM	O=C(Cn1ccnc1)c1ccc(-c2ccc(Br)cc2)cc1 [1-(4′-bromo-biphenyl-4-yl)-2-imidazol-1-yl-ethanone]	
2.8 ± 0.5 µM	20 ± 15 µM	c1ccc(CCCCCn2ccnc2)cc1 [1-(5-phenyl-pentyl)-1H-imidazole hydrochloride]	
0.67 ± 0.02 µM	1.7 ± 0.2 µM	N#Cc1ccc(OCC2CO[C@@](CCc3ccc(Cl)cc3)(Cn3ccnc3)O2)cc1 (stereo in doubt) [(2R,4S)-4-{2-[2-(4-chlorophenyl)ethyl]-2-imidazol-1-ylmethyl-[1,3]dioxolan-4-ylmethoxy}-benzonitrile hydrochloride]	
> 100 µM	> 100 µM	CSc1nnnn1CC(=O)CCc1ccccc1 [1-(5-Methylsulfanyl-tetrazol-1-yl)-4-phenyl-butan-2-one]	
5 ± 2 µM	22 ± 9 µM	Clc1ccc(CC[C@@]2(Cn3ccnc3)OC[C@@H](CSc3cccc(Br)c3)O2)cc1 [(2R,4S)-1-{4-(3-bromo-phenylsulfanylmethyl)-2-[2-(4-chloro-phenyl)-ethyl]-[1,3]dioxolan-2-ylmethyl}-1H-imidazole hydrochloride]	
1.19 ± 0.03 µM	16 ± 8 µM	OC(Cn1ccnc1)c1ccc(Cl)cc1 (racemic) [(±)-1-(4-chloro-phenyl)-2-imidazol-1-yl-ethanol hydrochloride]	
4 ± 1 µM	25 ± 5 µM	O=C(Cn1ccnc1)c1ccc(I)cc1 [2-imidazol-1-yl-1-(4-iodo-phenyl)ethanone]	
24 ± 6 µM	> 100 µM	O=C(c1ccccc1)C(c1ccccc1)n1ccnc1 (racemic) [(±)-2-imidazol-1-yl-1,2-diphenyl-ethanone hydrochloride]	
12 ± 2 µM	> 100 µM	Brc1ccc(C2(Cn3ccnc3)OCCO2)cc1 [1-[2-(4-bromo-phenyl)-[1,3]dioxolan-2-ylmethyl]-1H-imidazole hydrochloride]	
44 ± 1 µM	> 100 µM	OC(CCc1ccccc1)Cn1ccnn1 (racemic) [(±)-4-phenyl-1-[1,2,3]triazol-1-yl-butan-2-ol hydrochloride]	
0.47 ± 0.05 µM	4 ± 2 µM	Clc1ccc(CCCCn2ccnc2)cc1 [4-(4-chlorophenyl)-1-(1H-imidazol-1-yl)butane hydrochloride]	
19 ± 3 µM	> 100 µM	Clc1ccc(C2(Cn3ccnc3)OCCO2)cc1 [1-[2-(4-chloro-phenyl)-[1,3]dioxolan-2-ylmethyl]-1H-imidazole hydrochloride]	
0.225 ± 0.004 µM	1 ± 1 µM	OC(Cn1ccnc1)c1ccc(CCc2ccccc2)cc1 (racemic) [(±)-2-imidazol-1-yl-1-(4-phenethyl-phenyl)-ethanol]	
14 ± 4 µM	> 100 µM	c1ccc(CCCn2ccnc2)cc1 [1-(3-Phenyl-propyl)-1H-imidazole hydrochloride]	
56 ± 6 µM	> 100 µM	OC(CCc1ccccc1)Cn1cnnn1 (racemic) [(±)-4-phenyl-1-tetrazol-1-yl-butan-2-ol hydrochloride]	
1.2 ± 0.2 µM	5 ± 3 µM	c1ccc(SCCCCn2ccnc2)cc1 [1-(4-phenylsulfanyl-butyl)-1H-imidazole hydrochloride]	
> 100 µM	> 100 µM	COC(=O)Nc1nc2ccc(C(=O)c3cccs3)cc2[nH]1 [Nocodazole, reference compound]	
